Data reported in patent US20200179428A1, “CYCLIC PHOSPHATE SUBSTITUTED NUCLEOSIDE DERIVATIVES AND METHODS OF USE THEREOF FOR THE TREATMENT OF VIRAL DISEASES” (priority 2016, published 2020).
Where two headings read alike, the source gives them in different places.

Columns and labels:
replicon cells (1b-Con1) = test: Replicon activity assay (replicon RNA level by real-time RT-PCR, Taqman); assay type: cell-based; details: HCV replicon genotype 1b, read-out: EC50 (1b) Range
Method: (§1) To measure cell-based anti-HCV activity of the compounds of the present invention, replicon cells (1b-Con1) are seeded at 5000 cells/well in 96-well plates one day prior to treatment with a compound of the invention. Various concentrations of a test compound of the invention in DMSO are then added to the replicon cells, with the final concentration of DMSO at 0.5% and fetal bovine serum at 10% in the assay media. Cells are harvested three days post-dosing, and the replicon RNA level is determined using real-time RT-PCR (Taqman assay) with GAPDH RNA as endogenous control. EC50 values are calculated from experiments with 10 serial twofold dilutions of the inhibitor in triplicate. To measure cytotoxicity in replicon cells of an inhibitor, an MTS assay is performed according to the manufacturer's protocol for CellTiter 96 Aqueous One Solution Cell Proliferation Assay (Promega, Cat # G3580) three days post dosing on cells treated identically as in replicon activity assays. […] Cytotoxicity in other types of cells may be measured using the same MTS protocol.

[1] = Cytotoxicity MTS assay (CellTiter 96 Aqueous One Solution) in replicon cells; assay type: cell-based; details: EDU, read-out: CC50 (EDU) Range; for CC50 at 3 days: HCV replicon cells (1b-Con1)
Method: as §1

## C#C[C@]1(C)[C@@H]2OP(=O)(OCCC(C)C(=O)OC3CCCC3)OC[C@H]2O[C@H]1n1ccc(=O)[nH]c1=O (single isomer, unassigned) [Compound 2B]
Replicon cells (1b-Con1); Hepatitis C virus
  EC50: ≤ 0.25 µM
[1]
  CC50 at 3 days: > 50 µM

## C#C[C@]1(C)[C@@H]2OP(=O)(OCC(C)CC(=O)OC3CCCC3)OC[C@H]2O[C@H]1n1ccc(=O)[nH]c1=O (single isomer, unassigned) [Compound 3A]
Replicon cells (1b-Con1)
  EC50: > 10 µM
[1]
  CC50 at 3 days: > 50 µM

## CCOC(=O)C(C)CCOP1(=O)OC[C@H]2O[C@@H](n3ccc(=O)[nH]c3=O)[C@](C)(N)[C@@H]2O1 (single isomer, unassigned) [Compound 5A]
Replicon cells (1b-Con1)
  EC50: 1 to 10 µM
[1]
  CC50 at 3 days: > 50 µM

## C#C[C@]1(C)[C@@H]2OP(=O)(OCC(C)CC(=O)OC(C)C)OC[C@H]2O[C@H]1n1ccc(=O)[nH]c1=O (single isomer, unassigned) [Compound 6A]
Replicon cells (1b-Con1)
  EC50: 1 to 10 µM
[1]
  CC50 at 3 days: > 50 µM

## C#C[C@@]1(O)[C@@H]2OP(=O)(OCC[C@@H](C)C(=O)OC(C)C)OC[C@H]2O[C@H]1n1ccc(=O)[nH]c1=O (single isomer, unassigned) [Compound 7A1]
Replicon cells (1b-Con1); Hepatitis C virus
  EC50: 0.25 to 1 µM
[1]
  CC50 at 3 days: > 50 µM

## C#C[C@@]1(O)[C@@H]2OP(=O)(OCC[C@H](C)C(=O)OC(C)C)OC[C@H]2O[C@H]1n1ccc(=O)[nH]c1=O (single isomer, unassigned) [Compound 7A2]
Replicon cells (1b-Con1)
  EC50: 0.25 to 1 µM
[1]
  CC50 at 3 days: > 50 µM

## C#C[C@@]1(O)[C@@H]2OP(=O)(OCC[C@H](C)C(=O)OC3CCCC3)OC[C@H]2O[C@H]1n1ccc(=O)[nH]c1=O (single isomer, unassigned) [Compound 8A1]
Replicon cells (1b-Con1); Hepatitis C virus
  EC50: 0.25 to 1 µM
[1]
  CC50 at 3 days: > 50 µM

## C#C[C@@]1(O)[C@@H]2OP(=O)(OCCC(C)C(=O)OC3CCCC3)OC[C@H]2O[C@H]1n1ccc(=O)[nH]c1=O (single isomer, unassigned) [Compound 8A]
Replicon cells (1b-Con1); Hepatitis C virus
  EC50: 0.25 to 1 µM
[1]
  CC50 at 3 days: > 50 µM

## CC(C)OC(=O)C(C)CCOP1(=O)OC[C@H]2O[C@@H](n3ccc(=O)[nH]c3=O)[C@](C)(N)[C@@H]2O1 (single isomer, unassigned) [Compound 10A1]
Replicon cells (1b-Con1); Hepatitis C virus
  EC50: > 10 µM
[1]
  CC50 at 3 days: > 50 µM

## CC(CCOP1(=O)OC[C@H]2O[C@@H](n3ccc(=O)[nH]c3=O)[C@](C)(N)[C@@H]2O1)C(=O)OC1CCCC1 (single isomer, unassigned) [Compound 14A1]
Replicon cells (1b-Con1)
  EC50: > 10 µM
[1]
  CC50 at 3 days: > 50 µM

## CC(C)OC(=O)C(C)CCOP1(=O)OC[C@H]2O[C@@H](n3cnc4c(N)ncnc43)[C@](C)(Cl)[C@@H]2O1 (single isomer, unassigned) [Compound 35A1]
Replicon cells (1b-Con1); Hepatitis C virus
  EC50: ≤ 0.25 µM
[1]
  CC50 at 3 days: > 50 µM

## CC(C)OC(=O)[C@@H](C)CCOP1(=O)OC[C@H]2O[C@@H](n3cnc4c(N)ncnc43)[C@](C)(Cl)[C@@H]2O1 (single isomer, unassigned) [Compound 35A2]
Replicon cells (1b-Con1); Hepatitis C virus
  EC50: ≤ 0.25 µM
[1]
  CC50 at 3 days: > 50 µM

## C#C[C@]1(C)[C@@H]2OP(=O)(OCCC(C(=O)OC(C)C)C(=O)OC(C)C)OC[C@H]2O[C@H]1n1ccc(=O)[nH]c1=O (single isomer, unassigned) [Compound 36A]
Replicon cells (1b-Con1)
  EC50: 0.25 to 1 µM
[1]
  CC50 at 3 days: > 50 µM

## CC(C)OC(=O)[C@@H](C)CCOP1(=O)OC[C@H]2O[C@@H](n3ccc(=O)[nH]c3=O)[C@](C)(Cl)[C@@H]2O1 (single isomer, unassigned) [Compound 39A1]
Replicon cells (1b-Con1); Hepatitis C virus
  EC50: ≤ 0.25 µM
[1]
  CC50 at 3 days: > 50 µM

## CC(C)OC(=O)C(C)CCOP1(=O)OC[C@H]2O[C@@H](n3ccc(=O)[nH]c3=O)[C@](C)(Cl)[C@@H]2O1 (single isomer, unassigned) [Compound 39B1]
Replicon cells (1b-Con1); Hepatitis C virus
  EC50: ≤ 0.25 µM
[1]
  CC50 at 3 days: > 50 µM

## C#C[C@]1(C)[C@@H]2OP(=O)(OCCC(C)C(=O)OC(C)C)OC[C@H]2O[C@H]1n1ccc(=O)[nH]c1=O (stereo partly shown) [Compound 1A]
Replicon cells (1b-Con1); Hepatitis C virus
  EC50: 1 to 10 µM
[1]
  CC50: > 50 µM

## C#C[C@]1(C)[C@@H]2OP(=O)(OCCC(C)C(=O)OC3CCCC3)OC[C@H]2O[C@H]1n1ccc(=O)[nH]c1=O (stereo partly shown) [Compound 2A]
Replicon cells (1b-Con1); Hepatitis C virus
  EC50: 1 to 10 µM
[1]
  CC50 at 3 days: > 50 µM

## C#C[C@]1(C)[C@@H]2OP(=O)(OCC(C)CC(=O)OC(C)C)OC[C@H]2O[C@H]1n1ccc(=O)[nH]c1=O (stereo partly shown) [Compound 6B]
Replicon cells (1b-Con1); Hepatitis C virus
  EC50: 1 to 10 µM
[1]
  CC50 at 3 days: > 50 µM

## C#C[C@@]1(O)[C@@H]2OP(=O)(OCCC(C)C(=O)OC(C)C)OC[C@H]2O[C@H]1n1ccc(=O)[nH]c1=O (stereo partly shown) [Compound 7A]
Replicon cells (1b-Con1); Hepatitis C virus
  EC50: 0.25 to 1 µM
[1]
  CC50: > 50 µM

## CC(C)OC(=O)C(C)CCOP1(=O)OC[C@H]2O[C@@H](n3ccc(=O)[nH]c3=O)[C@](C)(N)[C@@H]2O1 (stereo partly shown) [Compound 10A]
Replicon cells (1b-Con1); Hepatitis C virus
  EC50: > 10 µM
[1]
  CC50 at 3 days: > 50 µM

## CC(CCOP1(=O)OC[C@H]2O[C@@H](n3ccc(=O)[nH]c3=O)[C@](C)(N)[C@@H]2O1)C(=O)OC1CCCC1 (stereo partly shown) [Compound 14A]
Replicon cells (1b-Con1); Hepatitis C virus
  EC50: > 10 µM
[1]
  CC50 at 3 days: > 50 µM

## CC(C)OC(=O)C(C)(C)CO[P@@]1(=O)OC[C@H]2O[C@@H](n3ccc(=O)[nH]c3=O)[C@](C)(N)[C@@H]2O1 [Compound 15A]
Replicon cells (1b-Con1); Hepatitis C virus
  EC50: > 10 µM
[1]
  CC50 at 3 days: > 50 µM

## CCC(CCO[P@@]1(=O)OC[C@H]2O[C@@H](n3ccc(=O)[nH]c3=O)[C@](C)(N)[C@@H]2O1)C(=O)OC1CCCC1 (stereo partly shown) [Compound 25A]
Replicon cells (1b-Con1); Hepatitis C virus
  EC50: > 10 µM

## CCC(CCO[P@]1(=O)OC[C@H]2O[C@@H](n3ccc(=O)[nH]c3=O)[C@](C)(N)[C@@H]2O1)C(=O)OC1CCCC1 (stereo partly shown) [Compound 25B]
Replicon cells (1b-Con1); Hepatitis C virus
  EC50: > 10 µM

## CC(=O)O[C@H](CO[P@@]1(=O)OC[C@H]2O[C@@H](n3ccc(=O)[nH]c3=O)[C@](C)(N)[C@@H]2O1)CC(=O)OC(C)C [Compound 52A]
Replicon cells (1b-Con1); Hepatitis C virus
  EC50: > 10 µM

## CC(=O)O[C@H](CO[P@]1(=O)OC[C@H]2O[C@@H](n3ccc(=O)[nH]c3=O)[C@](C)(N)[C@@H]2O1)CC(=O)OC(C)C [Compound 52B]
Replicon cells (1b-Con1); Hepatitis C virus
  EC50: > 10 µM

## CC(=O)O[C@H](C(=O)OC(C)C)[C@@H](CO[P@@]1(=O)OC[C@H]2O[C@@H](n3ccc(=O)[nH]c3=O)[C@](C)(N)[C@@H]2O1)OC(C)=O [Compound 53A]
Replicon cells (1b-Con1); Hepatitis C virus
  EC50: > 10 µM

## C#C[C@]1(C)[C@@H]2O[P@@](=O)(OC[C@H](CC(=O)OC(C)C)OC(C)=O)OC[C@H]2O[C@H]1n1ccc(=O)[nH]c1=O [Compound 55A]
Replicon cells (1b-Con1); Hepatitis C virus
  EC50: > 10 µM

## C#C[C@]1(C)[C@@H]2O[P@](=O)(OC[C@H](CC(=O)OC(C)C)OC(C)=O)OC[C@H]2O[C@H]1n1ccc(=O)[nH]c1=O [Compound 55B]
Replicon cells (1b-Con1); Hepatitis C virus
  EC50: > 10 µM

## CC(C)OC(=O)[C@@H](C)CCO[P@@]1(=O)OC[C@H]2O[C@@H](n3ccc4c(N)ncnc43)[C@](C)(Cl)[C@@H]2O1 [Compound 80A]
Replicon cells (1b-Con1); Hepatitis C virus
  EC50: > 10 µM

## CC(C)OC(=O)[C@@H](C)CCO[P@]1(=O)OC[C@H]2O[C@@H](n3ccc4c(N)ncnc43)[C@](C)(Cl)[C@@H]2O1 [Compound 80B]
Replicon cells (1b-Con1); Hepatitis C virus
  EC50: 1 to 10 µM

## CC(C)OC(=O)[C@H](C)CCO[P@@]1(=O)OC[C@H]2O[C@@H](n3cc(F)c4c(N)ncnc43)[C@](C)(Cl)[C@@H]2O1 [Compound 81A]
Replicon cells (1b-Con1); Hepatitis C virus
  EC50: > 10 µM

## CC(C)OC(=O)[C@H](C)CCO[P@]1(=O)OC[C@H]2O[C@@H](n3cc(F)c4c(N)ncnc43)[C@](C)(Cl)[C@@H]2O1 [Compound 81B]
Replicon cells (1b-Con1); Hepatitis C virus
  EC50: > 10 µM

## CC(C)OC(=O)[C@@H](C)CCO[P@@]1(=O)OC[C@H]2O[C@@H](n3cc(F)c4c(N)ncnc43)[C@](C)(Cl)[C@@H]2O1 [Compound 82A]
Replicon cells (1b-Con1); Hepatitis C virus
  EC50: > 10 µM

## CC(C)OC(=O)[C@H](C)CCO[P@]1(=O)OC[C@H]2O[C@@H](n3cc(F)c4c(N)ncnc43)[C@](C)(Cl)[C@@H]2O1 [Compound 82B]
Replicon cells (1b-Con1)
  EC50: > 10 µM

## CC(C)OC(=O)[C@H](C)CCOP1(=O)OC[C@@]2(F)O[C@@H](n3ccc(=O)[nH]c3=O)[C@](C)(F)[C@@H]2O1 (stereo partly shown) [Compound 87A]
Replicon cells (1b-Con1); Hepatitis C virus
  EC50: ≤ 0.25 µM
